Results reported in patent US20250206738A1, “WRN INHIBITORS” (Nimbus Wadjet, Inc., priority 2023, published 2025).

How the values were obtained:
[1] = target: T1, human Werner helicase (WRN, Uniprot Q14191, amino acids 517-1235 with L1074F point mutation; WRN-BV08) (Homo sapiens, UniProt Q14191, L1074F); assay: WRN (BV08) ADP-Glo assay; assay type: biochemical; settings: WRN-BV08 (aa 517-1235, L1074F); read-out: ADP-Glo_hWRN_IC50
T1 construct: Uniprot Q14191, amino acids 517-1235 with L1074F point mutation; 8xHis (C, cleaved yes); TEV cleavage site (ENLYFQG) (C, cleaved yes); made in house; host or cells: Sf9 insect cells (baculovirus, pFastBac)
T1 sequence (Q14191 with tags, fused parts or gaps L1074F): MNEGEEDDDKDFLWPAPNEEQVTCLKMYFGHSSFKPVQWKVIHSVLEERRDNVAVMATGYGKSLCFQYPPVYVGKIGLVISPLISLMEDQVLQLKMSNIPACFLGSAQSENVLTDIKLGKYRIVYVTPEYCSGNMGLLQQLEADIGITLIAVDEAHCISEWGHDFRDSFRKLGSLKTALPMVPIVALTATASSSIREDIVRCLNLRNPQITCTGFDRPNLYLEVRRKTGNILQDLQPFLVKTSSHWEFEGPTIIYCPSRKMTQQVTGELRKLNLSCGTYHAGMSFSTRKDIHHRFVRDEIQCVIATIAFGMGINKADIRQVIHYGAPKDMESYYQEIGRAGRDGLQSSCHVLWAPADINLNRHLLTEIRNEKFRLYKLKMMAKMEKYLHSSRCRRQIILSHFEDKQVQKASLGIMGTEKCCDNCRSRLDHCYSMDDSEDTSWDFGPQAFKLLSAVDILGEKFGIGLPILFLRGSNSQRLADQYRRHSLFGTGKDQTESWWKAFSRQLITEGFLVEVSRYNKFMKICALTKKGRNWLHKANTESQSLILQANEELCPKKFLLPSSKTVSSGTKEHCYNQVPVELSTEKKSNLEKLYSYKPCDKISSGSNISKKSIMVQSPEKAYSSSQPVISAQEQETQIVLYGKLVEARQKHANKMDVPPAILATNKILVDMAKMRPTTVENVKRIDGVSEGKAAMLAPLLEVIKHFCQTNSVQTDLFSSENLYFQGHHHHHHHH
Summary of the method: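 ADP formed by untagged WRN helicase fragment (aa 517-1235, L1074F; 0.15 nM final) on 0.1 nM DNA duplex with […], 60 min at 25 °C after 15 min compound preincubation, pH 7.5 Bicine buffer. Luminescent ADP-Glo readout; IC50 from 4-parameter fit of % inhibition.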

[2] = tested on: p21 induction in HCT 116 cells; assay: p21 induction in cells (In-Cell Western, p21/GAPDH ratio); assay type: cell-based; settings: Homo sapiens, HCT-116, 24 h, 24 h compound incubation, read-out: P21_EC50
Description: Example 3: Method for Determining Effect on p21 Induction in Cells
The colon carcinoma cell line HCT 116 was obtained from ATCC and cultured in growth medium consisting of Mccoy's 5A Medium (Gibco 16600108) supplemented with 10% FBS (Transgene FS201-02) and 100 units/mL penicillin-streptomycin (Gibco 15140122) and maintained at 37° C. under 5% CO2. On the day of seeding, 2,000 cells in 30 μL of culture media were plated per well to Poly-D-Lysine 384 Well Black Clear Plates (Biocoat 356663) and incubated overnight at 37° C. under 5% CO2. The following day, compounds were serially diluted in DMSO for a total of 11 test concentrations. The typical starting concentration of compounds was 10 μM with 2-fold dilutions. Next, 150 nL of diluted compound was added in duplicate to the assay plate, using an Echo 655 (Labcyte). The plate was centrifuged at 500 RPM for 1 min and then incubated at 37° C. under 5% CO2 for 24 h. After 24h, medium was removed, and cells were fixed by adding 40 μL of 4% paraformaldehyde solution to each well and incubated for 20 min at room temperature. The plate was then washed 4 times with 100 μL per well of wash buffer (PBS with 0.1% Tween-20) using a microplate washer. Next, 30 μL of ice-cold methanol was added to each well and the plate was incubated at −20° C. for 10 min. The plate was washed 4 times with 100 μL per well of wash buffer by a microplate washer, then 30 μL per well of blocking buffer (Intercept PBS blocking buffer (LI-COR 927-70001) with 0.05% Tween-20) was added and the plate was incubated at room temperature with shaking for 2h. Next, to each test well, 20 μL of primary antibody solution (p21 Waf1/CIP (12D1) RabbitmAb (Cell Signaling Technologies 2947) diluted 1:1000 and GAPDH (D4C6R) Mouse mAb (Cell Signaling Technologies 97166) diluted 1:2000 in blocking buffer) was added and the plate was placed at 4° C., overnight. The following day, the plate was washed 5 times with 100 μL per well of wash buffer using a microplate washer for 5 min. 20 μL per well of secondary antibody (IRDye 680CW Goat anti-Mouse IgG (H+L) (LI-COR 926-68070) diluted 1: 2000 in Blocking Buffer and IRDye 800CW Goat anti-Rabbit IgG (H+L) (LI-COR 926-32211) diluted 1: 2000 in Blocking Buffer) was then added and the plate was stored for 2h in the dark at room temperature with shaking. The plate was then washed 4 times with 100 μL per well of wash buffer again using a microplate washer. Finally, the p21 signal and the GAPDH signal were quantified using a LI-COR Odyssey CLx Imager machine reading at 800 nm and 700 nm, respectively. Each plate contained DMSO control (low control) and an internal reference WRN inhibitor (high control) respectively. For quantitation, the 800 nm/700 nm ratio was calculated for each well to give fold p21 induction and then percent activation for each compound well was calculated as follows (100×(ratio cpd well−ratio low control)/(ratio high control−ratio low control)). EC50 values for each compound were generated after non-linear regression curve fitting using commercially available software.

SMILES	IC50 [1]	EC50 [2]
CCc1c(N2CCN(C(=O)c3ncnc(C)c3O)CC2)c(=O)n2nc(C3=CCOCC3)nc2n1CC(=O)NC12COC(C(F)(F)F)(C1)C2 [I-26, 2-(2-(3,6-dihydro-2H-pyran-4-yl)-5-ethyl-6-(4-(5-hydroxy-6-methylpyrimidine-4-carbonyl)piperazin-1-yl)-7-oxo-[1,2,4]triazolo[1,5-a]pyrimidin-4(7H)-yl)-N-(1-(trifluoromethyl)-2-oxabicyclo[2.1.1]hexan-4-yl)acetamide]	100 to 500 nM	> 5000 nM
CCc1c(N2CCN(C(=O)c3ncnc(C)c3O)CC2)c(=O)n2nc(-c3ccnc(OC)c3)nc2n1CC(=O)NC1CC(C(F)(F)F)C1 (stereo not shown) [I-27, 2-(5-ethyl-6-(4-(5-hydroxy-6-methylpyrimidine-4-carbonyl)piperazin-1-yl)-2-(2-methoxypyridin-4-yl)-7-oxo-[1,2,4]triazolo[1,5-a]pyrimidin-4(7H)-yl)-N-(3-(trifluoromethyl)cyclobutyl)acetamide]	100 to 500 nM	> 5000 nM
CCc1c(N2CCN(C(=O)c3c(O)ccc4ncoc34)CC2)c(=O)n2nc(C3=CCOCC3)nc2n1CC(=O)NC12CC(C3CC3)(C1)C2 [I-29, N-(3-cyclopropylbicyclo[1.1.1]pentan-1-yl)-2-(2-(3,6-dihydro-2H-pyran-4-yl)-5-ethyl-6-(4-(6-hydroxybenzo[d]oxazole-7-carbonyl)piperazin-1-yl)-7-oxo-[1,2,4]triazolo[1,5-a]pyrimidin-4(7H)-yl)acetamide]	5 to 50 nM	≤ 500 nM
CCc1c(N2CCN(C(=O)c3c(O)ccc4ncoc34)CC2)c(=O)n2nc(-c3ccnc(OC)c3)nc2n1CC(=O)NC12CC(CCF)(C1)C2 [I-31, 2-(5-ethyl-6-(4-(6-hydroxybenzo[d]oxazole-7-carbonyl)piperazin-1-yl)-2-(2-methoxypyridin-4-yl)-7-oxo-[1,2,4]triazolo[1,5-a]pyrimidin-4(7H)-yl)-N-(3-(2-fluoroethyl)bicyclo[1.1.1]pentan-1-yl)acetamide]	5 to 50 nM	500 to 2000 nM
CCc1c(N2CCN(C(=O)c3ncnc(C)c3O)CC2)c(=O)n2nc(C3=CCOCC3)nc2n1CC(=O)NC12CC(C3CC3)(C1)C2 [I-32, N-(3-cyclopropylbicyclo[1.1.1]pentan-1-yl)-2-(2-(3,6-dihydro-2H-pyran-4-yl)-5-ethyl-6-(4-(5-hydroxy-6-methylpyrimidine-4-carbonyl)piperazin-1-yl)-7-oxo-[1,2,4]triazolo[1,5-a]pyrimidin-4(7H)-yl)acetamide]	5 to 50 nM	2000 to 5000 nM
CCc1c(N2CCN(C(=O)c3ncnc(C)c3O)CC2)c(=O)n2nc(N(C)C)nc2n1CC(=O)NC12CC(C(F)(F)F)(C1)C2 [I-33, 2-(2-(dimethylamino)-5-ethyl-6-(4-(5-hydroxy-6-methylpyrimidine-4-carbonyl)piperazin-1-yl)-7-oxo-[1,2,4]triazolo[1,5-a]pyrimidin-4(7H)-yl)-N-(3-(trifluoromethyl)bicyclo[1.1.1]pentan-1-yl)acetamide]	100 to 500 nM	> 5000 nM
CCc1c(N2CCN(C(=O)c3c(O)ccc4ncoc34)CC2)c(=O)n2nc(-c3ccnc(OC)c3)nc2n1CCNC(=O)C12CC(C(F)(F)F)(C1)C2 [I-34, N-(2-(5-ethyl-6-(4-(6-hydroxybenzo[d]oxazole-7-carbonyl)piperazin-1-yl)-2-(2-methoxypyridin-4-yl)-7-oxo-[1,2,4]triazolo[1,5-a]pyrimidin-4(7H)-yl)ethyl)-3-(trifluoromethyl)bicyclo[1.1.1]pentyl-1-carboxamide]	> 500 nM	> 5000 nM

More lines, now with the values ahead:

IC50 [1]	EC50 [2]	SMILES
5 to 50 nM	2000 to 5000 nM	CCc1c(N2CCN(C(=O)c3ncc4c(c3O)CCO4)CC2)c(=O)n2nc(C3=CCN(C(=O)COC)CC3)nc2n1CC(=O)NC12CC(C(F)(F)F)(C1)C2 [I-21, 2-(5-ethyl-6-(4-(4-hydroxy-2,3-dihydrofuro[2,3-c]pyridine-5-carbonyl)piperazin-1-yl)-2-(1-(2-methoxyacetyl)-1,2,3,6-tetrahydropyridin-4-yl)-7-oxo-[1,2,4]triazolo[1,5-a]pyrimidin-4(7H)-yl)-N-(3-(trifluoromethyl)bicyclo[1.1.1]pentan-1-yl)acetamide]
5 to 50 nM	2000 to 5000 nM	CCc1c(N2CCN(C(=O)c3c(O)ccc4ncoc34)CC2)c(=O)n2nc(N(C)C)nc2n1CC(=O)NC12CC(C(F)(F)F)(C1)C2 [I-22, 2-(2-(dimethylamino)-5-ethyl-6-(4-(6-hydroxybenzo[d]oxazole-7-carbonyl)piperazin-1-yl)-7-oxo-[1,2,4]triazolo[1,5-a]pyrimidin-4(7H)-yl)-N-(3-(trifluoromethyl)bicyclo[1.1.1]pentan-1-yl)acetamide]
5 to 50 nM	≤ 500 nM	CCc1c(N2CCN(C(=O)c3c(O)ccc4ncoc34)CC2)c(=O)n2nc(-c3ccnc(OC)c3)nc2n1CC(=O)NC12CC(CC)(C1)C2 [I-23, 2-(5-ethyl-6-(4-(6-hydroxybenzo[d]oxazole-7-carbonyl)piperazin-1-yl)-2-(2-methoxypyridin-4-yl)-7-oxo-[1,2,4]triazolo[1,5-a]pyrimidin-4(7H)-yl)-N-(3-ethylbicyclo[1.1.1]pentan-1-yl)acetamide]
5 to 50 nM	> 5000 nM	CCc1c(N2CCN(C(=O)c3ncnc(C)c3O)CC2)c(=O)c2sc(-c3ccnc(OC)c3)nc2n1CC(=O)NC12CC(C(F)(F)F)(C1)C2 [I-25, 2-(5-ethyl-6-(4-(5-hydroxy-6-methylpyrimidine-4-carbonyl)piperazin-1-yl)-2-(2-methoxypyridin-4-yl)-7-oxothiazolo[4,5-b]pyridin-4(7H)-yl)-N-(3-(trifluoromethyl)bicyclo[1.1.1]pentan-1-yl)acetamide]
≤ 5 nM	≤ 500 nM	CCc1c(N2CCN(C(=O)c3c(O)ccc4ncoc34)CC2)c(=O)n2nc(-c3ccnc(OC)c3)nc2n1CC(=O)NC12CC(C3CCC3)(C1)C2 [I-28, N-(3-cyclobutylbicyclo[1.1.1]pentan-1-yl)-2-(5-ethyl-6-(4-(6-hydroxybenzo[d]oxazole-7-carbonyl)piperazin-1-yl)-2-(2-methoxypyridin-4-yl)-7-oxo-[1,2,4]triazolo[1,5-a]pyrimidin-4(7H)-yl)acetamide]
≤ 5 nM	≤ 500 nM	CCc1c(N2CCN(C(=O)c3c(O)ccc4ncoc34)CC2)c(=O)n2nc(-c3ccnc(OC)c3)nc2n1CC(=O)NC12CC(C(C)C)(C1)C2 [I-35, 2-(5-ethyl-6-(4-(6-hydroxybenzo[d]oxazole-7-carbonyl)piperazin-1-yl)-2-(2-methoxypyridin-4-yl)-7-oxo-[1,2,4]triazolo[1,5-a]pyrimidin-4(7H)-yl)-N-(3-isopropylbicyclo[1.1.1]pentan-1-yl)acetamide]
≤ 5 nM	≤ 500 nM	CCc1c(N2CCN(C(=O)c3c(O)ccc4ncoc34)CC2)c(=O)n2nc(-c3ccnc(OC)c3)nc2n1CC(=O)NC12CC(C3CC3)(C1)C2 [I-36, N-(3-cyclopropylbicyclo[1.1.1]pentan-1-yl)-2-(5-ethyl-6-(4-(6-hydroxybenzo[d]oxazole-7-carbonyl)piperazin-1-yl)-2-(2-methoxypyridin-4-yl)-7-oxo-[1,2,4]triazolo[1,5-a]pyrimidin-4(7H)-yl)acetamide]
